# Reference: patent US9150592B2, “Heterocyclic nuclear hormone receptor modulators” (AbbVie Inc., priority 2012, dated 2015)
# Columns and labels:
# [1] = biological target: T1, Glucocorticoid Receptor (GR) (Homo sapiens, UniProt P04150); test: GR Fluorescence Polarization Assay (PolarScreen Glucocorticoid Receptor Competitor Assay, Red); conditions: IC50 class ranges, read-out: GR binding
# T1 construct: purchased Invitrogen P2893
# T1 sequence (P04150 1-777): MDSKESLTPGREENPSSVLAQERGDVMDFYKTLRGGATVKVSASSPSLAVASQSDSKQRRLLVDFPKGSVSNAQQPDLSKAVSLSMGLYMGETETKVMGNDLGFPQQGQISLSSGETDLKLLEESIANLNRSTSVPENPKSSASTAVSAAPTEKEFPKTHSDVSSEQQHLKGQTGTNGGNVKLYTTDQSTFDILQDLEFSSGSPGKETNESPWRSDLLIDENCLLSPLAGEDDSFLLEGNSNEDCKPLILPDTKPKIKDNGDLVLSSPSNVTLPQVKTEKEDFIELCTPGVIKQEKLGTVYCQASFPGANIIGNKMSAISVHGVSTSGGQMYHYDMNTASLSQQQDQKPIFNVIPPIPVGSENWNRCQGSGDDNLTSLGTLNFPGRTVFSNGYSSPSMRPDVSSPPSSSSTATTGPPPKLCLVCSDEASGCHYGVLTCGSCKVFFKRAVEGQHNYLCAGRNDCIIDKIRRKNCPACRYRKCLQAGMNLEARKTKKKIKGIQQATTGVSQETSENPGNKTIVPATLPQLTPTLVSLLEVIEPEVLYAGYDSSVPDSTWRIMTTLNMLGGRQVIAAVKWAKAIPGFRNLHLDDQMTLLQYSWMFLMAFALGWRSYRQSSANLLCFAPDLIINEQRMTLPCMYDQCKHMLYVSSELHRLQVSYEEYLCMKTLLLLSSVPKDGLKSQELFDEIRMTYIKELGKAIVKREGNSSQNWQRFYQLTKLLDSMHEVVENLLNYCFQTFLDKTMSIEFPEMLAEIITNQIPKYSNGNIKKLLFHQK
# Description: GR Fluorescence Polarization Assay
# Fluorescence polarization assays were carried out using the PolarScreen™ Glucocorticoid Receptor Competitor Assay, Red from Invitrogen (P2893). The assay buffer was prepared according to the manufacturer's protocol and used to dilute the fluorescent glucocorticoid and GR. Compounds were prepared and serial diluted 1:4 in DMSO. Compound, fluorescent glucocorticoid and GR were added in a final volume of 20 μL and incubated overnight at 4° C. Fluorescent polarization was measured on the PerkinElmer Envision®.
# [2] = system: IL-6 in A549 cells stimulated with IL-1β; test: A549 Cell Assay to Measure Inflammation Markers (inhibition of IL-1β-induced IL-6); type: cell-based; conditions: intrinsic activity, Emax class ranges; for Emax: Homo sapiens, A549, A549 Cell Assay to Measure Inflammation Markers; for A549 Emax: A549 Cell Assay to Measure Inflammation Markers
# Description: A549 Cell Assay to Measure Inflammation Markers
# Further dilution (1:250) of compound was made into assay medium and 50 μL/well diluted drug or DMSO/media control was applied to cells. After a 1 h pre-incubation in a temperature, CO2, and humidity controlled incubator, set to 37° C., 50 μL/well of 4 ng/mL IL-1β diluted in assay media, was applied to cultures. Assay plates, with a final volume of 200 μL/well and final concentrations of 0.1% DMSO and 1 ng/mL IL-1β were returned to incubator for a […] incubation period. Next, plates were spun at 183 g (1000 rpm in Beckman/Coulter Allegra 6KR centrifuge) for 10 min. Cell-free supernatant (150 μL/well) was collected and IL-6 was measured by MSD kit, following protocol of manufacturer, and using MSD SECTOR Imager 6000 instrument. […] Results were represented as IC50 and Emax values.
SMILES,IC50 [1] [nM],Emax [2] [%],A549 Emax [2]
CC(=O)N1CCC(C2SCCNc3c2c(-c2ccccn2)nn3C)CC1 (centres unmarked),> 10000,< 50,
Cc1cc(OCc2cccnc2)ccc1C1SCCNc2c1c(-c1ccccn1)nn2C (centres unmarked),100 to 1000,< 50,
Cc1cc(OCc2cccnc2C)ccc1C1SCCNc2c1c(-c1ccccn1)nn2C (centres unmarked),< 100,< 50,
Cc1cc(S(C)(=O)=O)ccc1C1SCCNc2c1c(-c1ccccn1)nn2C (centres unmarked),100 to 1000,< 50,
Cc1nn(C)c2c1C(c1ccc(Cl)cc1Cl)SC(C)(C)CN2CC(O)C(F)(F)F (centres unmarked),> 10000,< 50,
Cn1nc(-c2ccccn2)c2c1NCCSC2c1ccc(C(=O)O)cc1Cl (centres unmarked),100 to 1000,< 50,
Cc1ncccc1NC(=O)c1ccc([C@H]2SCCNc3c2c(-c2ccccn2)nn3C)c(Cl)c1,< 100,,A (a compound with Emax>70%)
Cc1cc(C(=O)Nc2cccnc2C)ccc1C1SCCNc2c1c(-c1ccccn1)nn2C (centres unmarked),< 100,> 70,
Cc1ccc(C2SCCNc3c2c(-c2ccccn2)nn3C)c(Cl)c1 (centres unmarked),< 100,< 50,
Cn1nc(-c2ccccn2)c2c1NCCSC2c1ccccc1Cl (centres unmarked),< 100,< 50,
Cc1nn(C)c2c1C(c1ccc(Cl)cc1Cl)SC(C)(C)CN2C=O (centres unmarked),1000 to 10000,< 50,
Cc1nn(C)c2c1C(c1ccc(Cl)cc1Cl)SC(C)(C)C(=O)N2C (centres unmarked),1000 to 10000,< 50,
Cc1nn(C)c2c1C(c1ccc(Cl)cc1Cl)SC(C)(C)CN2C (centres unmarked),100 to 1000,< 50,
Cn1nc(-c2ccccn2)c2c1NCCSC2c1ccc(Br)cc1Cl (centres unmarked),< 100,< 50,
Cc1cc(Br)ccc1C1SCCNc2c1c(-c1ccccn1)nn2C (centres unmarked),< 100,> 50,
CCc1cc(Cl)ccc1C1SCCNc2c1c(-c1ccccn1)nn2C (centres unmarked),< 100,> 50,
Cc1cc(Cl)ccc1C1SCCNc2c1c(-c1ccn[nH]1)nn2C (centres unmarked),100 to 1000,< 50,
CC1=Nc2c(c(-c3ccccn3)nn2C)C(c2ccc(Cl)cc2C)SC1 (centres unmarked),100 to 1000,< 50,
C=Cc1cc(Cl)ccc1C1SCCNc2c1c(-c1ccccn1)nn2C (centres unmarked),< 100,> 60,
Cc1cc(Cl)ccc1[C@H]1SC(C)(C)CNc2c1c(C1CC1)nn2C,< 100,> 60,
Cc1cc(Cl)ccc1[C@H]1SC[C@H](C)Nc2c1c(-c1ccccn1)nn2C,1000 to 10000,< 50,
Cc1cc(Cl)ccc1[C@@H]1SC(C)(C)CNc2c1c(C1CC1)nn2C,100 to 1000,< 50,
Cc1cc(Cl)ccc1[C@@H]1SC[C@@H](C)Nc2c1c(-c1ccccn1)nn2C,< 100,> 70,
CCn1nc(-c2ccccn2)c2c1NCCCC2c1ccc(Br)cc1 (centres unmarked),< 100,> 70,
Cc1cc(C(=O)Nc2cccnc2C)ccc1[C@H]1SCCNc2c1c(-c1ccccn1)nn2C,100 to 1000,,B (a compound with Emax>60%)
Cc1cc(C(=O)Nc2cccnc2C)ccc1[C@@H]1SCCNc2c1c(-c1ccccn1)nn2C,< 100,,A (a compound with Emax>70%)

SMILES,IC50 [1] [nM],Emax [2] [%],A549 Emax [2]
Cn1nc([C@@H]2CCCN2)c2c1NCCSC2c1ccc(Cl)cc1Cl (mixture of isomers),> 10000,< 50,
Cc1cc(Cl)ccc1C1SCCNc2c1c([C@@H]1CCCN1)nn2C (mixture of isomers),1000 to 10000,< 50,
Cc1cc(Br)ccc1[C@H]1SC[C@H](C(N)=O)Nc2c1c(-c1ccccn1)nn2C (racemic),100 to 1000,< 50,
Cc1cc(Br)ccc1C1SCC(C#N)Nc2c1c(-c1ccccn1)nn2C (racemic),< 100,> 60,
Cc1cc(Br)ccc1[C@H]1SC[C@H](CC#N)Nc2c1c(-c1ccccn1)nn2C (racemic),< 100,> 50,
Cc1cc2c(cnn2-c2ccc(F)cc2)cc1C1SCC(=O)Nc2c1c(-c1ccccn1)nn2C (racemic),< 100,> 70,
Cc1cc(Cl)ccc1[C@@H]1S[C@@H](CCO)[C@@H](C)Nc2c1c(C)nn2C (racemic),< 100,> 70,
Cc1cc(Br)ccc1[C@H]1SC[C@@H](C(F)(F)F)Nc2c1c(-c1ccccn1)nn2C (racemic),< 100,< 50,
Cc1cc(Br)ccc1[C@H]1SC[C@H](C(F)(F)F)Nc2c1c(-c1ccccn1)nn2C (racemic),100 to 1000,< 50,
Cc1cc(C(=O)Nc2cccnc2C)ccc1[C@H]1CC[C@](O)(C(F)(F)F)Cc2c1c(-c1ccccn1)nn2C (racemic),< 100,> 70,
Cc1cc(C(=O)Nc2cccnc2C)ccc1[C@H]1CC[C@@](O)(C(F)(F)F)Cc2c1c(-c1ccccn1)nn2C (racemic),< 100,> 70,
"Cc1cc(Cl)ccc1C1SCC(C)Nc2c1c(-c1ccccn1)nn2C (racemic) [4-(4-chloro-2-methyl-phenyl)-1,7-dimethyl-3-(2-pyridyl)-4,6,7,8-tetrahydropyrazolo[3,4-e][1,4]thiazepine]",< 100,> 70,
Cc1cc(C#N)ccc1[C@H]1S[C@@H](C)CNc2c1c(C1CC1)nn2C (racemic) [G.3],< 100,< 50,
Cc1cc(C#N)ccc1[C@@H]1S[C@@H](C)CNc2c1c(C1CC1)nn2C (racemic) [G.4],< 100,< 50,
Cc1cc(Cl)ccc1[C@H]1SC(C)(C)[C@@H](c2ccccc2)Nc2c1c(C)nn2C (racemic) [K.2],1000 to 10000,< 50,
Cc1cc(Cl)ccc1[C@H]1SC[C@@H](C)Nc2c1c(C)nn2C (racemic) [K.7],< 100,< 50,
Cc1cc(Br)ccc1[C@@H]1SC[C@H](CO)Nc2c1c(-c1ccccn1)nn2C (racemic) [K.9],< 100,< 50,
"Cc1cc(Br)ccc1[C@@H]1SC[C@@H](CO)Nc2c1c(-c1ccccn1)nn2C (racemic) [K.10, rac-((4R,7S)-4-(4-bromo-2-methylphenyl)-1-methyl-3-(pyridin-2-yl)-4,6,7,8-tetrahydro-1H-pyrazolo[3,4-e][1,4]thiazepin-7-yl)methanol]",< 100,> 60,
"Cc1ncccc1NC(=O)c1ccc(C2SCCNc3c2c(-c2ccccn2)nn3C)c(Cl)c1 (single isomer, unassigned)",1000 to 10000,< 50,
"Cc1cc(Cl)ccc1C1SCCNc2c1c(-c1ccccn1)nn2C (single isomer, unassigned)",100 to 1000,< 50,
"Cc1cc(Cl)ccc1C1SCC(C)Nc2c1c(-c1ccccn1)nn2C (single isomer, unassigned)",1000 to 10000,< 50,
"Cc1cc(C(=O)Nc2cccnc2C)ccc1C1SCC(CO)Nc2c1c(-c1ccccn1)nn2C (single isomer, unassigned)",< 100,> 70,
"Cc1cc(Cl)ccc1C1SC(CCO)C(C)Nc2c1c(C)nn2C (single isomer, unassigned)",100 to 1000,> 70,
"Cn1nc(-c2ccccn2)c2c1NCCS[C@@H]2c1ccc(Br)cc1Cl (single isomer, unassigned) [M.1, 4-(4-bromo-2-chlorophenyl)-1-methyl-3-(pyridin-2-yl)-4,6,7,8-tetrahydro-1H-pyrazolo[3,4-e][1,4]thiazepine]",100 to 1000,< 50,
"Cn1nc(-c2ccccn2)c2c1NCCS[C@H]2c1ccc(Br)cc1Cl (single isomer, unassigned) [M.2, 4-(4-bromo-2-chlorophenyl)-1-methyl-3-(pyridin-2-yl)-4,6,7,8-tetrahydro-1H-pyrazolo[3,4-e][1,4]thiazepine]",< 100,< 50,
"Cn1nc(C2CC2)c2c1NCC(C)(C)SC2c1ccc(Cl)cc1F (single isomer, unassigned) [M.3, 4-(4-chloro-2-fluorophenyl)-3-cyclopropyl-1,6,6-trimethyl-4,6,7,8-tetrahydro-1H-pyrazolo[3,4-e][1,4]thiazepine]",1000 to 10000,< 50,
